Where a name gives a salt, the structure may show the parent alone.

The text below walks through data of patent US11173151B2, “Substituted triazole derivatives and uses thereof” (BAYER AKTIENGESELLSCHAFT, priority 2017, dated 2021).

In assay [1] the target is T1, human V1a receptor (Homo sapiens, UniProt P37288).
T1 construct: expressed in transfected cells; host or cells: CHO K1 (ATCC), also stably transfected with a modified aequorin
The assay is described as follows: Cellular in vitro assay for determining vasopressin receptor activity, V1a receptor cell line (CHO, aequorin luminescence). Type of assay: cell-based. The settings on record: for IC50: CHO cell line transfected with human V1a receptor, [Arg]-vasopressin at EC50 concentration, read-out: IC50 hV1a; for ratio IC50 hV2/hV1a: selectivity ratio IC50 hV2 / IC50 hV1a. The method, boiled down:
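CHO K1/aequorin cells, coelenterazine 5 μg/ml o/n; cpd 10 min; [Arg]-vasopressin at EC50; luminescence read immediately; IC50.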

The target in assay [2] is T2, human V2 receptor (Homo sapiens, UniProt P30518).
T2 construct: expressed in transfected cells; host or cells: CHO K1 (ATCC) expressing firefly luciferase under a CRE-responsive promoter
The assay is described as follows: Cellular in vitro assay for determining vasopressin receptor activity, V2 receptor cell line (CHO, CRE-luciferase). Type of assay: cell-based. The settings on record: CHO cell line transfected with human V2 receptor; [Arg8]-vasopressin at EC50 concentration; read-out: IC50 hV2.

T2 sequence (P30518 whole entry): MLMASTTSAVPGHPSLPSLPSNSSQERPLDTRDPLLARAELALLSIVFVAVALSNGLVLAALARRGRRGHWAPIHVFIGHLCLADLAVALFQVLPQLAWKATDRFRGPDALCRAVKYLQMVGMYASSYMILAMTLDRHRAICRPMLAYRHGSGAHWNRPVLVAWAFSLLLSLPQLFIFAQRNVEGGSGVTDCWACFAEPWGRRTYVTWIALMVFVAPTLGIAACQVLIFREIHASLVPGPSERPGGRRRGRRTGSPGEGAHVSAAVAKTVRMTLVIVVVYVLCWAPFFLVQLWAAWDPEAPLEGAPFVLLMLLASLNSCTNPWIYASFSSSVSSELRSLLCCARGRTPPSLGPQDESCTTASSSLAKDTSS
T1 sequence (P37288 whole entry): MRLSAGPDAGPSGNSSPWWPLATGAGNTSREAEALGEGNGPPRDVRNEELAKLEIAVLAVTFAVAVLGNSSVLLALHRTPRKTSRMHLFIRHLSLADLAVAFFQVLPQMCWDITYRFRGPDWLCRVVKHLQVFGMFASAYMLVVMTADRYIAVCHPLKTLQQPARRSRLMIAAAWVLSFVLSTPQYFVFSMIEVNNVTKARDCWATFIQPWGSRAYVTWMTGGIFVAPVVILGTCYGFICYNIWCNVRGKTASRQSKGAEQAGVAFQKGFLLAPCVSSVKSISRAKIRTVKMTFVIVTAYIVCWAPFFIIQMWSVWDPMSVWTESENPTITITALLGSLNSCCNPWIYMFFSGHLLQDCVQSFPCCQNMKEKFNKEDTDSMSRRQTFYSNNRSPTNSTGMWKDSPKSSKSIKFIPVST

Take `O=C(c1ncccc1-n1cnc(Cn2nc(-c3ccc(Cl)cc3)n(C[C@H](O)C(F)(F)F)c2=O)n1)N1CCOCC1` [Example 446, 5-(4-Chlorophenyl)-2-({1-[2-(morpholin-4-ylcarbonyl)pyridin-3-yl]-1H-1,2,4-triazol-3-yl}methyl)-4-[(2S)-3,3,3-trifluoro-2-hydroxypropyl]-2,4-dihydro-3H-1,2,4-triazol-3-one]: the IC50 (as a rule, the concentration that gives 50% inhibition) came to 47 nM in assay [1] and 21500 nM in assay [2]. Further, the “ratio IC50 hV2/hV1a” value in assay [1] is on record as 457.4.
As to `O=C(NC1(C(F)(F)F)CC1)c1ncccc1-n1cnc(Cn2nc(-c3ccc(Cl)cc3)n(C[C@H](O)C(F)(F)F)c2=O)n1` [Example 447, 3-[3-({3-(4-Chlorophenyl)-5-oxo-4-[(2S)-3,3,3-trifluoro-2-hydroxypropyl]-4,5-dihydro-1H-1,2,4-triazol-1-yl}methyl)-1H-1,2,4-triazol-1-yl]-N-[1-(trifluoromethyl)cyclopropyl]pyridine-2-carboxamide], in assay [1], the IC50 is 29.5 nM and the “ratio IC50 hV2/hV1a” value was 27.6. Moreover, in assay [2], the half-inhibitory concentration (IC50) is 815 nM.
For the compound `O=C(c1ncccc1-n1cnc(Cn2nc(-c3ccc(Cl)cc3)n(C[C@H](O)C(F)(F)F)c2=O)n1)N1CCC[C@H]1C(F)(F)F` [Example 450, 5-(4-Chlorophenyl)-4-[(2S)-3,3,3-trifluoro-2-hydroxypropyl]-2-{[1-(2-{[(2S)-2-(trifluoromethyl)pyrrolidin-1-yl]carbonyl}pyridin-3-yl)-1H-1,2,4-triazol-3-yl]methyl}-2,4-dihydro-3H-1,2,4-triazol-3-one], in assay [1], the IC50 turned out to be 39.5 nM and the “ratio IC50 hV2/hV1a” value was 31.6. In assay [2], the IC50 amounted to 1250 nM.
For the compound `O=C(c1ncccc1-n1cnc(Cn2nc(-c3ccc(Cl)cc3)n(C[C@H](O)C(F)(F)F)c2=O)n1)N1CCC[C@@H]1C(F)(F)F` [Example 451, 5-(4-Chlorophenyl)-4-[(2S)-3,3,3-trifluoro-2-hydroxypropyl]-2-{[1-(2-{[(2R)-2-(trifluoromethyl)pyrrolidin-1-yl]carbonyl}pyridin-3-yl)-1H-1,2,4-triazol-3-yl]methyl}-2,4-dihydro-3H-1,2,4-triazol-3-one], in assay [1], the IC50 came to 110 nM and the “ratio IC50 hV2/hV1a” value was found to be 9.3. Further, the IC50 in assay [2] was found to be 1020 nM.
In the same order, the values of `O=C(c1ncccc1-n1cnc(Cn2nc(-c3ccc(Cl)cc3)n(C[C@H](O)C(F)(F)F)c2=O)n1)N1CCS(=O)(=O)CC1` [Example 452, 5-(4-Chlorophenyl)-2-[(1-{2-[(1,1-dioxidothiomorpholin-4-yl)carbonyl]pyridin-3-yl}-1H-1,2,4-triazol-3-yl)methyl]-4-[(2S)-3,3,3-trifluoro-2-hydroxypropyl]-2,4-dihydro-3H-1,2,4-triazol-3-one] are 265 nM, 22.3 and 5900 nM.
For `CC1(C)CNCCN1C(=O)c1ncccc1-n1cnc(Cn2nc(-c3ccc(Cl)cc3)n(C[C@H](O)C(F)(F)F)c2=O)n1` [Example 453, 5-(4-Chlorophenyl)-2-[(1-{2-[(2,2-dimethylpiperazin-1-yl)carbonyl]pyridin-3-yl}-1H-1,2,4-triazol-3-yl)methyl]-4-[(2S)-3,3,3-trifluoro-2-hydroxypropyl]-2,4-dihydro-3H-1,2,4-triazol-3-one-Hydrochloric Acid Salt], the IC50 in assay [1] is 175 nM; in assay [2], 32000 nM. Also, the “ratio IC50 hV2/hV1a” value in assay [1] was 182.9.
Take `CN(CC1CC1)C(=O)c1ncccc1-n1cnc(Cn2nc(-c3ccc(Cl)cc3)n(C[C@H](O)C(F)(F)F)c2=O)n1` [Example 454, 3-[3-({3-(4-Chlorophenyl)-5-oxo-4-[(2S)-3,3,3-trifluoro-2-hydroxypropyl]-4,5-dihydro-1H-1,2,4-triazol-1-yl}methyl)-1H-1,2,4-triazol-1-yl]-N-(cyclopropylmethyl)-N-methylpyridine-2-carboxamide]: the IC50 in assay [1] was 12 nM; in assay [2], 4050 nM. In assay [1], the “ratio IC50 hV2/hV1a” value is given as 337.5.
Consider `CC1(NC(=O)c2ncccc2-n2cnc(Cn3nc(-c4ccc(Cl)cc4)n(C[C@H](O)C(F)(F)F)c3=O)n2)CC1` [Example 455, 3-[3-({3-(4-Chlorophenyl)-5-oxo-4-[(2S)-3,3,3-trifluoro-2-hydroxypropyl]-4,5-dihydro-1H-1,2,4-triazol-1-yl}methyl)-1H-1,2,4-triazol-1-yl]-N-(1-methylcyclopropyl)pyridine-2-carboxamide], for which, in assay [1], the IC50 came to 4.4 nM and the “ratio IC50 hV2/hV1a” value came out at 272.7. Moreover, the IC50 in assay [2] worked out at 1200 nM.
Turning to `O=C(NCC(F)(F)F)c1ncccc1-n1cnc(Cn2nc(-c3ccc(Cl)cc3)n(C[C@@H](O)C(F)(F)F)c2=O)n1` [Example 457, 3-[3-({3-(4-Chlorophenyl)-5-oxo-4-[(2R)-3,3,3-trifluoro-2-hydroxypropyl]-4,5-dihydro-1H-1,2,4-triazol-1-yl}methyl)-1H-1,2,4-triazol-1-yl]-N-(2,2,2-trifluoroethyl)pyridine-2-carboxamide], in assay [1], the IC50 stood at 210 nM and the “ratio IC50 hV2/hV1a” value is 25.2. In addition, the IC50 in assay [2] worked out at 5300 nM.
As to `O=C(NC1CC1)c1ncccc1-n1cnc(Cn2nc(-c3ccc(Cl)cc3)n(C[C@@H](O)C(F)(F)F)c2=O)n1` [Example 458, 3-[3-({3-(4-Chlorophenyl)-5-oxo-4-[(2R)-3,3,3-trifluoro-2-hydroxypropyl]-4,5-dihydro-1H-1,2,4-triazol-1-yl}methyl)-1H-1,2,4-triazol-1-yl]-N-cyclopropylpyridine-2-carboxamide], in assay [1], the IC50 was 100 nM and the “ratio IC50 hV2/hV1a” value is 60.5. Also, the IC50 in assay [2] came out at 6050 nM.
On to `O=C(NCC1CC1)c1ncccc1-n1cnc(Cn2nc(-c3ccc(Cl)cc3)n(C[C@@H](O)C(F)(F)F)c2=O)n1` [Example 459, 3-[3-({3-(4-Chlorophenyl)-5-oxo-4-[(2R)-3,3,3-trifluoro-2-hydroxypropyl]-4,5-dihydro-1H-1,2,4-triazol-1-yl}methyl)-1H-1,2,4-triazol-1-yl]-N-(cyclopropylmethyl)pyridine-2-carboxamide], for which the values for the IC50 in assay [1] and in assay [2] were 210 nM and 4400 nM, respectively. In addition, in assay [1], the “ratio IC50 hV2/hV1a” value is reported as 21.0.
As to `O=C(NC1CC1(F)F)c1ncccc1-n1cnc(Cn2nc(-c3ccc(Cl)cc3)n(C[C@@H](O)C(F)(F)F)c2=O)n1` (stereo partly drawn) [Example 460, 3-[3-({3-(4-Chlorophenyl)-5-oxo-4-[(2R)-3,3,3-trifluoro-2-hydroxypropyl]-4,5-dihydro-1H-1,2,4-triazol-1-yl}methyl)-1H-1,2,4-triazol-1-yl]-N-[2,2-difluorocyclopropyl]pyridine-2-carboxamide], the IC50 in assay [1] is 130 nM; in assay [2], 3950 nM. Moreover, the “ratio IC50 hV2/hV1a” value in assay [1] was 30.4.
In the case of `NC(=O)[C@@H]1CC(F)(F)CN1C(=O)c1ncccc1-n1cnc(Cn2nc(-c3ccc(Cl)cc3)n(C[C@@H](O)C(F)(F)F)c2=O)n1` [Example 461, 1-({3-[3-({3-(4-Chlorophenyl)-5-oxo-4-[(2R)-3,3,3-trifluoro-2-hydroxypropyl]-4,5-dihydro-1H-1,2,4-triazol-1-yl}methyl)-1H-1,2,4-triazol-1-yl]pyridin-2-yl}carbonyl)-4,4-difluoro-L-prolinamide], the concentration for half-maximal inhibition (IC50) came to 1100 nM in assay [1] and 22000 nM in assay [2]. In assay [1], the “ratio IC50 hV2/hV1a” value is listed as 20.0.
In the same order, the values of `O=C(NC1CC1F)c1ncccc1-n1cnc(Cn2nc(-c3ccc(Cl)cc3)n(C[C@@H](O)C(F)(F)F)c2=O)n1` (stereo partly drawn) [Example 462, 3-[3-({3-(4-Chlorophenyl)-5-oxo-4-[(2R)-3,3,3-trifluoro-2-hydroxypropyl]-4,5-dihydro-1H-1,2,4-triazol-1-yl}methyl)-1H-1,2,4-triazol-1-yl]-N-[2-fluorocyclopropyl]pyridine-2-carboxamide] are 97 nM, 5950 nM and 61.3.
For `O=C(c1ncccc1-n1cnc(Cn2nc(-c3ccc(Cl)cc3)n(C[C@@H](O)C(F)(F)F)c2=O)n1)N1CCC(F)(F)C1` [Example 463, 5-(4-Chlorophenyl)-2-[(1-{2-[(3,3-difluoropyrrolidin-1-yl)carbonyl]pyridin-3-yl}-1H-1,2,4-triazol-3-yl)methyl]-4-[(2R)-3,3,3-trifluoro-2-hydroxypropyl]-2,4-dihydro-3H-1,2,4-triazol-3-one], the IC50 was found to be 235 nM in assay [1] and 32000 nM in assay [2]. Moreover, the “ratio IC50 hV2/hV1a” value in assay [1] came to 136.2.
Consider `CC1(C)CN(C(=O)c2ncccc2-n2cnc(Cn3nc(-c4ccc(Cl)cc4)n(C[C@@H](O)C(F)(F)F)c3=O)n2)CCO1` [Example 464, 5-(4-Chlorophenyl)-2-[(1-{2-[(2,2-dimethylmorpholin-4-yl)carbonyl]pyridin-3-yl}-1H-1,2,4-triazol-3-yl)methyl]-4-[(2R)-3,3,3-trifluoro-2-hydroxypropyl]-2,4-dihydro-3H-1,2,4-triazol-3-one], for which, in assay [1], the IC50 worked out at 60 nM and the “ratio IC50 hV2/hV1a” value stood at 533.3. In addition, the IC50 in assay [2] amounted to 32000 nM.
As for `O=C(NC1CC(F)(F)C1)c1ncccc1-n1cnc(Cn2nc(-c3ccc(Cl)cc3)n(C[C@@H](O)C(F)(F)F)c2=O)n1` [Example 465, 3-[3-({3-(4-Chlorophenyl)-5-oxo-4-[(2R)-3,3,3-trifluoro-2-hydroxypropyl]-4,5-dihydro-1H-1,2,4-triazol-1-yl}methyl)-1H-1,2,4-triazol-1-yl]-N-(3,3-difluorocyclobutyl)pyridine-2-carboxamide], in assay [1], the IC50 was found to be 170 nM and the “ratio IC50 hV2/hV1a” value was found to be 21.2. Also, the IC50 in assay [2] amounted to 3600 nM.
